Data reported in US20090123565A9, “Copper-dependent non-traditional pro-inflammatory cytokine export and methods, compositions and kits relating thereto” (Maine Medical Center Research Institute, priority 2001, published 2009).

Tests used:
[1] = test system: balloon-injured rat carotid artery; test: Macrophage infiltration into injured arterial wall (CD11b/MAC1 immunostaining); type: in vivo, Sprague-Dawley rats
Protocol: In order to address the mechanisms underlying the effect of copper chelation on neointima formation, TTM was administered for 2 weeks before the balloon injury and daily after that until the animals were euthanized at the 4th and 7th day after the procedure. Accordingly, TTM-free animals euthanized 4 and 7 days after the injury were used as controls.
Macrophage migration was evaluated by immunostaining with the macrophage-specific monoclonal antibody CD11b (MAC1) in acetone/ethanol fixed sections. To quantitate the extent of macrophage invasion, the area occupied by MAC1-positive cells as a percentage of the total area of the neointima was determined. The number of SMCs in the injured artery was counted at day 4, 7 and 14 by the modified method of Prescott et al. Briefly, the cross-sections were subjected to immunohistostaining against α-smooth muscle actin using a commercially available detection system (DAKO) and counter-stained with hematoxylin. The number of nuclei that were accompanied by α-smooth muscle actin-positive cytoplasm was counted at a magnification of ×40 in 10 independent sections from each rat by an observer in a blind manner.

serum ceruloplasmin = test: Serum ceruloplasmin (surrogate marker of free copper) in rats; type: in vivo, Sprague-Dawley rats; conditions: daily 10 mg/kg TTM within 4 weeks
Protocol: Copper status in mammals treated with TTM cannot be reliably followed by measuring total serum copper level because the chelated copper will still be detected. Serum ceruloplasmin, whose synthesis is directly regulated by the bio-availability of copper to the liver, is a more accurate indicator of free copper and is used as a surrogate marker of free copper status Schosinksy et al., 1974, Clin. Chem. 20:1556-1563. Serum ceruloplasmin was assessed as baseline level before the TTM-treatment, as well as on the day of the injury and on the final day. Blood (0.5 to 1 ml) was obtained from the tail vein after anesthesia was centrifuged for 10 minutes at 2000×G and the serum was frozen at −20° C. until assay. Ceruloplasmin oxidative activity was measured as described previously (Schosinsky et al., 1974, Clin. Chem. 20:1556-1563).

[2] = test system: IL1α release from NIH 3T3 cell transfectants; test: Heat shock-induced release of IL1α from NIH 3T3 cell transfectants (immunoblot of conditioned media); type: cell-based, human
Protocol: FIG. 5, comprising FIGS. 5A and 5B, depict the involvement of Cu^2+ in IL1α release. FIG. 5A is an image depicting results obtained using NIH 3T3 cells stably transfected with mIL1α-βGal. The cells were incubated for 18 hours at 37 C in the absence and presence of the Cu^2+ chelator, tetrathiomolybdate (TTM) as indicated and the untreated and treated cells either maintained at 37 C or subjected to heat shock as described in FIG. 3. The conditioned medium was evaluated for IL1α-βGal release by IL1α immunoblot analysis, and cell lysates from TTM-treated cells were used to monitor the intracellular level of IL1α-βGal expression. […] FIG. 5B is an image depicting release of IL1α-βGal in myc-S100A13 and IL1α-βGal NIH 3T3 cell cotransfectants and in insert-less vector and mIL1α-βGal NIH 3T3 cell transfectants in the presence and absence actinomycin D (10 μg/ml), as indicated, in response to heat shock. Conditioned media were processed and evaluated for IL1α-βGal immunoblot analysis as described in Tarantini et al. (2001).
Stable NIH 3T3 cell transfectants were generated accordingly with the following cDNA constructs cloned into pMEXneo (Tarantini, et al. 2001; Tarantini, et al. 1995; Tarantini, et al. 1998; LaVallee, et al. 1998; Carreira, et al. 1998; Landriscina, et al., 2001): human S100A13 with an amino-terminal fusion to a 6 Myc Tag (Myc-S100A13) (Landriscina, et al., 2001); human Myc-S100A13ΔBR (Landriscina, et al., 2001); human mIL1α (residues 113-271); human mIL1α with a carboxy-terminal fusion to a βGalactosidase tag (mIL1α-βGal) (Tarantini, et al. 2001); and pIL1α (residues 1-271) with a carboxy-terminal fusion to βGalactosidase (pIL1α-βGal) (Tarantini, et al. 2001). Recombinant human mIL1α was provided by Hoffmann-LaRoche. Recombinant human S100A13, as well as S100A13ΔBR, a S100A13 construct with the basic residue rich domain (residues 88 to 98) deleted, were generated as previously described (Landriscina, et al., 2001).
NIH 3T3 cell transfectants were grown to 70-80% confluency and prior to temperature stress, the cells were washed with serum-free DMEM. The heat shock was performed as previously described (Tarantini et al., 1995) in serum-free DMEM for 110 min at 42° C. Control cultures were incubated at 37° C. in serum-free DMEM. […] Immunoprecipitated and eluted proteins were resolved by 8% and 12% acrylamide SDS-PAGE, respectively, and evaluated by either IL1α (Tarantini, et al. 2001) or Myc (Landriscina, et al., 2001) immunoblot analysis. […] The effects of actinomycin D (Sigma Chemical Co., St. Louis, Mo.), cyclohexamide (Sigma) and tetrathiomolybdate (Sigma-Aldrich) on IL1α release were evaluated as previously reported (LaVallee et al., 1998).

[3] = rat, in vivo, 10 mg/kg
Protocol: A copper chelator, ammonium tetrathiomolybdate (Sigma Aldrich), was administered daily in a dose of 10 mg/kg. The total daily amount was freshly dissolved into 45 ml water and was dispensed to the rats in the drinking water. To assess the effect of copper chelation on neointimal formation after common carotid artery denudation, TTM was given as follows: TTM administration started 2 weeks before the injury in 6 rats; 1 week before the injury in 6 rats; there was no pre-injury treatment with TTM in 5 rats. All those rats were treated with TTM for 2 weeks after the balloon injury. Five rats, which underwent the surgical procedure and were never treated with TTM, served as controls.

## [NH4+].[NH4+].[SH-].[SH-].[S]=[Mo]=[S] [TTM, ammonium tetrathiomolybdate]
[1]; 4 and 7 days after the injury
  MAC1 positive cells in controls compared to treated rats: marked increase
[1]; 4 days after injury
  macrophages in the neointima vs control group: not detectably different
[1]; any time point after the injury (4 and 7 days)
  macrophages within the arterial wall: very few macrophages were present
[1]; day 7 after injury
  macrophages vs controls: more pronounced in the controls
Serum ceruloplasmin
  ceruloplasmin reduction to: 0-20 % of its baseline level
[2]; NIH 3T3 cells stably transfected with mIL1α-βGal, incubated 18 hours at 37 C with TTM, then heat shock, IL1α immunoblot (FIG. 5A)
  concentration at which TTM inhibited release of IL1α in response to heat shock: 250 nM
[2]; TTM introduced into the Myc-S100A13 and IL1α-βGal cotransfectant system with actinomycin D
  repression of release of IL1α-βGal in response to temperature stress: able to repress
[3]
  effects upon visual inspection of the animals: without detectable effects
